Measured values: patent US9044491B2, “Method for improving blood flow using stilbenoid derivatives” (The Board of Trustees of the University of Arkansas, priority 2010, dated 2015)
Where two headings read alike, the source gives them in different places.

Legend:
human CB2 = biological target: T1, human CB2 (Homo sapiens, UniProt P34972); experiment: CB2 binding, 3H-CP 55,940 displacement in CHO-hCB2 membranes; conditions: 0.2 nM 3H-CP 55,940
T1 construct: expressed in transfected cells; host or cells: CHO cells stably transformed with human CB2
T1 sequence (P34972 whole entry): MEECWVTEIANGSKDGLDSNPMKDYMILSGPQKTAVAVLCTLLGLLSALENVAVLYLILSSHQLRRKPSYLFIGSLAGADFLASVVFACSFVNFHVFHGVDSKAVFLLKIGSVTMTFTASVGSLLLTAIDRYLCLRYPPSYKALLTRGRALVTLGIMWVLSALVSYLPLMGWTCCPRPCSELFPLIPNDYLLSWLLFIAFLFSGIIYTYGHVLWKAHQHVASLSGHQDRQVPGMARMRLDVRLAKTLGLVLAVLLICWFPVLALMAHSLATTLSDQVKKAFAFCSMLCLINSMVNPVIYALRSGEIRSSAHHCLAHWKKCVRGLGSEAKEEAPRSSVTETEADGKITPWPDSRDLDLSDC
Experimental: (§1) Membrane preparations were prepared from mouse brain to examine CB1 binding. For CB2 binding, membrane preparations were prepared from CHO cells stably transformed with human CB2.

human UGT1A1 = biological target: T2, human UGT1A1 (Homo sapiens, UniProt P22309); experiment: Glucuronidation by recombinant human UGT1A1 (activity and kinetic constants)
T2 sequence (P22309 26-533): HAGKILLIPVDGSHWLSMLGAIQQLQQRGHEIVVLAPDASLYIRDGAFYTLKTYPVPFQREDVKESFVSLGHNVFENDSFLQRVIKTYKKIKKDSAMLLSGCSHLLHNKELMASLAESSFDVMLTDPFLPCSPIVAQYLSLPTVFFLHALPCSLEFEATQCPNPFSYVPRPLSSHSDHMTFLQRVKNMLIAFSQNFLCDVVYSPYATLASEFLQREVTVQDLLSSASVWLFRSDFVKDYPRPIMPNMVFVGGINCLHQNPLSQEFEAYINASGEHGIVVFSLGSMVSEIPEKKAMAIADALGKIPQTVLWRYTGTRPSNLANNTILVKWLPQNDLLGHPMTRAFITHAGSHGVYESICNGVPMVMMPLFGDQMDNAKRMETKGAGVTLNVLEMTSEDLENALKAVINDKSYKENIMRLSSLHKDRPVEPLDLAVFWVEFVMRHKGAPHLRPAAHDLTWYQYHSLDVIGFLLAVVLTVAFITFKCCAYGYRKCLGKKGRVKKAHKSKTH
Experimental: (§2) Eight human recombinant UGT1A isoforms (UGT1A1, 1A3, 1A4, 1A6, 1A7, 1A8, 1A9, and 1A10; 5 μg) expressed as His-tag proteins in baculovirus-infected Sf9 insect cells and human liver microsomes (from one donor; HL2; 50 μg) and human intestinal microsomes (from two donors; HI36 and HI41; 50 μg) were evaluated for their ability to glucuronidate these four compounds. The concentrations of the substrate and co-substrate (i.e., UDP-GlcUA) were 250 μM and 4 mM, respectively. Glucuronidation products were analyzed by HPLC and LCMS/MS.
(§3) The kinetic constants of the glucuronidation reactions using recombinant human UGT1A1 and UGT1A10 were determined by measuring the enzyme activity in the presence of increasing concentrations of substrate (see FIG. 2).

human UGT1A10 = biological target: T3, human UGT1A10 (Homo sapiens, UniProt Q9HAW8); experiment: Glucuronidation by recombinant human UGT1A10 (activity and kinetic constants)
T3 sequence (Q9HAW8 26-530): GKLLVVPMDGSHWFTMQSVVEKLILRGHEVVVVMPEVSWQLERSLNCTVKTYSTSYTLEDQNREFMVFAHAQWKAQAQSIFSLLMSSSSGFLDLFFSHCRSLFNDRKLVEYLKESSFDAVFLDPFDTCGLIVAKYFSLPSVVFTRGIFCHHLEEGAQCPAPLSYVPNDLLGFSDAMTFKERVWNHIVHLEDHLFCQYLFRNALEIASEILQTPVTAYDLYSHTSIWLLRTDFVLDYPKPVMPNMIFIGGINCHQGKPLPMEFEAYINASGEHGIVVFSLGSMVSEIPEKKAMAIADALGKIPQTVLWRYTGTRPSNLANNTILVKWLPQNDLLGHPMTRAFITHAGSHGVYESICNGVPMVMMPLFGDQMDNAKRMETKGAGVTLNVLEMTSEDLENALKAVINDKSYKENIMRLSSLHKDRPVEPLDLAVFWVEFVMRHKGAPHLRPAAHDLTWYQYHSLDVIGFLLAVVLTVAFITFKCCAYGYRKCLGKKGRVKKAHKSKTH
Experimental: as §2, §3

CB1 receptors [1] = type: biochemical, mouse; conditions: 10 μM compound, 30 min at 30° C.
CB1 receptors [2] = biological target: T4, CB1 receptors (Mus musculus, UniProt P47746); experiment: CB1 binding, 3H-CP 55,940 displacement in mouse brain membranes; conditions: isoprenyl group and additional hydroxyl group
T4 construct: from tissue; host or cells: mouse brain membranes
T4 sequence (P47746 whole entry): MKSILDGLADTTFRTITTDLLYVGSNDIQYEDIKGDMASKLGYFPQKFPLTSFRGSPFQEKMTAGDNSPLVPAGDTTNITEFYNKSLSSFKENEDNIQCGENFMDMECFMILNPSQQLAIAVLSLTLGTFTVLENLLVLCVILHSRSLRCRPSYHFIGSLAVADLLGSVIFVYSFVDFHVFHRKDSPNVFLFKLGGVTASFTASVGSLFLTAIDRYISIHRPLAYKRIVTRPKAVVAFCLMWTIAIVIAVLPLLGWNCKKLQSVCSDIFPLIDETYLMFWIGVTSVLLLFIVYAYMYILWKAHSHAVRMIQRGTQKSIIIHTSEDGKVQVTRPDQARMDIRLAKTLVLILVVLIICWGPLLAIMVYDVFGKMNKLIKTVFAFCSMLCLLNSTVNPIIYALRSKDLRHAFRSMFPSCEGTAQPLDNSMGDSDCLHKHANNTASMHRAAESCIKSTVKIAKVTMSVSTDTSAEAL
Experimental: as §1

[3] = test system: human intestinal microsomes; experiment: Glucuronidation by human intestinal microsomes; type: in vitro ADME; conditions: substrate 250 μM, UDP-GlcUA 4 mM
Experimental: Glucuronidation products were analyzed by HPLC and LCMS/MS.

CB1 receptors [4] = biological target: T4, CB1 receptors; type: biochemical
[5] = test system: CLP or Control (Sham) mice; experiment: Renal arterial blood flow by Doppler flow probe; type: in vivo, mouse; conditions: CPL-treated mice
Description: Under isoflurane anesthesia, the right kidney was exposed by flank incision and the renal artery and vein were carefully dissected from surrounding tissue with Dumont-5 forceps. The renal artery was isolated from the vein and a Transonic Systems (Ithaca, N.Y.) 0.5 PSL renal artery Doppler flow probe was positioned around the renal artery. The probe was calibrated in water using the zero and scale settings on the TS420 flowmeter (Transonic Systems). […] Body temperature was maintained at 36 to 37° C. with a heating lamp. Data were expressed in ml/min/g kidney weight.
Renal blood flow was measured essentially as described above in Example 10 following CPL surgery or control treatment (no surgery). CPL-treated mice were administered 10 mg/kg of resveratrol, 2.5 mg/kg of resveratrol-3-sulfate, or vehicle. […] In fact, resveratrol-3-sulfate produced the same degree of reversal at 25% of the dose of resveratrol.

O=C(O)[C@H]1O[C@@H](Oc2cc(O)cc(/C=C/c3ccc(O)c(O)c3)c2)[C@H](O)[C@@H](O)[C@@H]1O [3-Gluc-tPice]
Ki (human CB2): > 100000 nM

Oc1cc(O)cc(/C=C/c2ccc(O)c(O)c2)c1 [tPice, trans-piceatannol]
Kinetics (human UGT1A1; product 3-glucuronide (3G)): M-M | Kinetics (human UGT1A1; product 4′-glucuronide (4′G)): M-M | Ki (human CB2): 114000 ± 7800 nM | Kinetics (human UGT1A10; product 3-glucuronide (3G)): M-M | Kinetics (human UGT1A10; product 4′-glucuronide (4′G)): Hill | n (Hill coeff) (human UGT1A10; product 4′-glucuronide (4′G)): 1.7 | basal G-protein activity (CB1 receptors [1]): markedly reduced

trans-arachidin-1 [tA1]
kinetics of 4′-O-Gluc formation by UGT1A10 (human UGT1A10): substrate inhibition kinetics | Kinetics (human UGT1A10; product 4′-glucuronide (4′G)): USI | enhancement of binding affinity for CB1 (CB1 receptors [2]): 2 fold | production of 3G glucuronide by HIM [3]: large amount | basal G-protein activity (CB1 receptors [1]): markedly reduced | maximal response produced by CP-55,940 (CB1 receptors [4]; in the presence of 10 μM tA-1): 0.22±0.04 pmole/mg protein | EC50 (CB1 receptors [4]; in the presence of 10 μM tA-1, read-out: ED50 of CP-55,940 required to activate G-proteins): 28 nM

O=C(O)[C@H]1O[C@@H](Oc2ccc(/C=C/c3cc(O)cc(O)c3)cc2)[C@H](O)[C@@H](O)[C@@H]1O [4′-Gluc-rRes]
Ki (human CB2): > 100000 nM

CCCCCCC(C)(C)c1ccc([C@@H]2C[C@H](O)CC[C@H]2CCCO)c(O)c1 [CP-55,940]
G-protein activity (CB1 receptors [4]; 1 μM compound, 30 min at 30° C.): stimulated | maximal response produced by CP-55,940 (CB1 receptors [4]; CP-55,940 alone): 0.34±0.03 pmole/mg protein | EC50 (CB1 receptors [4]; CP-55,940 alone, read-out: ED50 required to activate G-proteins): 4.3 nM

O=S(=O)(O)Oc1cc(O)cc(C=Cc2ccc(O)cc2)c1 [resveratrol-3-sulfate]
dose producing the same degree of reversal, relative to resveratrol [5]: 25 % of the dose of resveratrol | renal blood flow ([5]; 2.5 mg/kg (Example 15)): increased blood flow

CC(C)/C=C/c1c(O)cc(/C=C/c2ccc(O)cc2)cc1O [tA3, trans-arachidin-3]
Kinetics (human UGT1A1; product 3-glucuronide (3G)): M-M | Kinetics (human UGT1A1; product 4′-glucuronide (4′G)): M-M | kinetics of 4′-O-Gluc formation by UGT1A10 (human UGT1A10): substrate inhibition kinetics | Kinetics (human UGT1A10; product 4′-glucuronide (4′G)): USI | basal G-protein activity (CB1 receptors [1]): little effect | EC50 (CB1 receptors [4]; in the presence of 30 μM tA-3, read-out: ED50 of CP-55,940 required to activate G-proteins): 127 nM
